According to ChEMBL document CHEMBL3865812, “Selective killing of cancer cells with triterpenoic acid amides - The substantial role of an aromatic moiety alignment” (Eur J Med Chem, 2016):
Active and inactive are the calls of the source. No cut-off for these calls is given here.

Columns and labels:
[1] = Cytotoxicity against human 518A2 cells measured after 96 hrs by SRB assay; type: functional, cell-based; conditions: 518A2, 96 h
[2] = Cytotoxicity against human HT-29 cells measured after 96 hrs by SRB assay; type: functional, cell-based; conditions: HT-29, 96 h
[3] = Cytotoxicity against human MCF7 cells measured after 96 hrs by SRB assay; type: functional, cell-based; conditions: MCF7, 96 h
[4] = Cytotoxicity against human A549 cells measured after 96 hrs by SRB assay; type: functional, cell-based; conditions: A549, 96 h
[5] = Cytotoxicity against human A2780 cells measured after 96 hrs by SRB assay; type: functional, cell-based; conditions: A2780, 96 h
[6] = Cytotoxicity against human 8505C cells measured after 96 hrs by SRB assay; type: functional, cell-based
[7] = Cytotoxicity against mouse NIH/3T3 cells measured after 96 hrs by SRB assay; type: toxicity, NIH3T3
[8] = Solubility of compound in water; type: physicochemical; conditions: buffer
A2780 [9] = assay: Induction of apoptosis in human A2780 cells assessed as increase in apoptotic cells at 6 uM measured after 2 days by Annexin V/FITC/propidium iodide staining-based FACS analysis; type: functional, cell-based
A2780 [10] = assay: Induction of apoptosis in human A2780 cells assessed as secondary necrotic cells at 6 uM measured after 2 days by Annexin V/FITC/propidium iodide staining-based FACS analysis; type: functional, cell-based
[11] = Cell cycle arrest in human A2780 cells assessed as decrease in G1 peak at 6 uM measured after 24 hrs by propidium iodide staining based FACS analysis; type: functional
[12] = Cell cycle arrest in human A2780 cells assessed as accumulation at S-phase at 6 uM measured after 24 hrs by propidium iodide staining based FACS analysis; type: functional
[13] = Cell cycle arrest in human A2780 cells assessed as loss of G2 peak at 6 uM measured after 24 hrs by propidium iodide staining based FACS analysis; type: functional
[14] = Cell cycle arrest in human A2780 cells assessed as decrease in accumulation of cells at S-phase at 6 uM measured after 48 hrs by propidium iodide staining based FACS analysis; type: functional
[15] = Cell cycle arrest in human A2780 cells assessed as sub-G1 peak appearance at 6 uM measured after 48 hrs by propidium iodide staining based FACS analysis; type: functional

Row | Compound | EC50 [1] | EC50 [2] | EC50 [3] | EC50 [4] | EC50 [5] | EC50 [6] | EC50 at 96 h [7] | solubility [8] | Activity (A2780 [9]) | Activity (A2780 [10]) | Activity [11] | Activity [12] | Activity [13] | Activity [14] | Activity [15]
1 | CC(=O)O[C@H]1C[C@]2(C)[C@H]3CC=C4[C@@H]5CC(C)(C)CC[C@]5(C(=O)Nc5cccc6cccnc56)CC[C@@]4(C)[C@]3(C)CC[C@H]2C(C)(C)[C@H]1OC(C)=O | 6.2 µM | > 30 µM | 24.6 µM | > 30 µM | 5.1 µM | 16.1 µM | > 30 µM | Insoluble |  |  |  |  |  |  | 
2 | CC(=O)O[C@H]1C[C@]2(C)[C@H]3CC=C4[C@@H]5[C@@H](C)[C@H](C)CC[C@]5(C(=O)Nc5cccnc5)CC[C@@]4(C)[C@]3(C)CC[C@H]2C(C)(C)[C@H]1OC(C)=O | 2 µM | 3.2 µM | 3.5 µM | 3.5 µM | 2 µM | 2.7 µM | 4.2 µM |  |  |  |  |  |  |  | 
3 | CC(=O)O[C@H]1C[C@]2(C)[C@H]3CC=C4[C@@H]5[C@@H](C)[C@H](C)CC[C@]5(C(=O)Nc5cccc6cccnc56)CC[C@@]4(C)[C@]3(C)CC[C@H]2C(C)(C)[C@H]1OC(C)=O | 13.3 µM | > 30 µM | > 30 µM | > 30 µM | 6.7 µM | > 30 µM | > 30 µM | Insoluble |  |  |  |  |  |  | 
4 | CC(=O)O[C@H]1C[C@]2(C)[C@H]3CC=C4[C@@H]5CC(C)(C)CC[C@]5(C(=O)Nc5ccc6ncccc6c5)CC[C@@]4(C)[C@]3(C)CC[C@H]2C(C)(C)[C@H]1OC(C)=O | 2.9 µM | 4.4 µM | 5.8 µM | 4.9 µM | 2 µM | 3.8 µM | 0.6 µM | Insoluble | Active | Active | Active | Active | Active | Active | Active
5 | CC(=O)O[C@H]1C[C@]2(C)[C@H]3CC=C4[C@@H]5[C@@H](C)[C@H](C)CC[C@]5(C(=O)Nc5ccncc5)CC[C@@]4(C)[C@]3(C)CC[C@H]2C(C)(C)[C@H]1OC(C)=O | 8.3 µM | 9.4 µM | 9 µM | 10.1 µM | 8.3 µM | 8.5 µM | 5.7 µM |  |  |  |  |  |  |  | 
6 | CC(=O)O[C@H]1C[C@]2(C)[C@H]3CC=C4[C@@H]5CC(C)(C)CC[C@]5(C(=O)O)CC[C@@]4(C)[C@]3(C)CC[C@H]2C(C)(C)[C@H]1OC(C)=O | 13.8 µM | 23.1 µM | 16.1 µM |  |  |  | > 30 µM |  |  |  |  |  |  |  | 
7 | CC(=O)O[C@H]1C[C@]2(C)[C@H]3CC=C4[C@@H]5[C@@H](C)[C@H](C)CC[C@]5(C(=O)Nc5cnc6ccccc6c5)CC[C@@]4(C)[C@]3(C)CC[C@H]2C(C)(C)[C@H]1OC(C)=O | 2.5 µM | 6.5 µM | 3.2 µM | 3.4 µM | 2.8 µM | 3.1 µM | 2.2 µM | Insoluble |  |  |  |  |  |  | 
8 | CC(=O)O[C@H]1C[C@]2(C)[C@H]3CC=C4[C@@H]5[C@@H](C)[C@H](C)CC[C@]5(C(=O)Nc5ccc6ncccc6c5)CC[C@@]4(C)[C@]3(C)CC[C@H]2C(C)(C)[C@H]1OC(C)=O | 4.2 µM | 9.2 µM | 6.5 µM | 5.3 µM | 4.2 µM | 4.3 µM | 0.9 µM | Insoluble |  |  |  |  |  |  | 
9 | CC(=O)O[C@H]1CC[C@]2(C)[C@H]3CC=C4[C@@H]5[C@@H](C)[C@H](C)CC[C@]5(C(=O)Nc5cccc6ncccc56)CC[C@@]4(C)[C@]3(C)CC[C@H]2C1(C)C | 3.5 µM | 5.1 µM | 3.9 µM | 5.1 µM | 4.4 µM | 3.5 µM | 3.5 µM |  |  |  |  |  |  |  | 
10 | CC(=O)O[C@H]1C[C@]2(C)[C@H]3CC=C4[C@@H]5[C@@H](C)[C@H](C)CC[C@]5(C(=O)O)CC[C@@]4(C)[C@]3(C)CC[C@H]2C(C)(C)[C@H]1OC(C)=O | 17.9 µM | 16.2 µM | 10.4 µM | 15.6 µM | 17.9 µM | 15.6 µM | 12.7 µM |  |  |  |  |  |  |  | 
